This is an account of results in ChEMBL document CHEMBL4825724, “Synthesis and biological evaluation of platensic alcohol as an adamantane surrogate in antitumor drug lead adaphostin” (Bioorg Med Chem Lett, 2021).

As a reminder, the IC50 is the concentration needed to halve the response being measured. A word on the half-life: it is the time needed for the level to fall by half in the phase considered. Lower therefore signals rapid decline. Usually MIC stands for the lowest concentration that inhibits growth of the organism. Higher therefore signals a need for much substance.

Each structure is given as a SMILES string. In brackets after ≈: the same amount, converted by molar mass. Activity calls are given as the source filed them. Some results are limits rather than exact numbers.

In one data set the test system is Caco-2. The experiment in a line: Cytotoxicity against human Caco-2 cells assessed as cell growth inhibition measured after 72 hrs by CCK8 assay. The settings on record: Caco-2, 72 h. It is filed as functional, cell-based. Background: Formazan colour is commonly taken as a measure of viable cells.
Data set [1] relates to Jurkat. Description: Induction of ROS generation in human Jurkat cells at 1 uM measured after 2 hrs by DCFH-DA staining based flourescence assay relative to H2O2. It is filed as functional, cell-based.
A short description of data set [2]: Cytotoxicity against human KPL-4 cells assessed as cell growth inhibition measured after 72 hrs by CCK8 assay. It counts as functional, cell-based. The settings on record: KPL4, 72 h.
A short description of data set [3]: Half life in human serum incubated up to 24 hrs by HPLC analysis. It counts as ADME, cell-free.
Data set [4] concerns Jurkat. The experiment in a line: Antagonistic cytotoxicity against human Jurkat cells assessed as decrease in cell viability at 0.1 to 25 uM measured after 72 hrs in presence of vorinostat. As to conditions: dose 0.1-25 µM. It counts as functional, cell-based.
The test system of data set [5] is Jurkat. Description: Cytotoxicity against human Jurkat cells assessed as cell growth inhibition measured after 72 hrs by CCK8 assay. It counts as functional, cell-based.
The test system of another data set is A549. Description: Cytotoxicity against human A549 cells assessed as cell growth inhibition measured after 72 hrs by CCK8 assay. It is filed as functional, cell-based. As to conditions: A549, 72 h.
For the next data set, the system named is Staphylococcus aureus. The experiment in a line: Antibacterial activity against methicillin-resistant Staphylococcus aureus. It counts as functional.
For data set [6], the system named is Jurkat. The experiment in a line: Induction of ROS generation in human Jurkat cells at 5 uM measured after 4 hrs by DCFH-DA staining based flourescence assay relative to H2O2. It is filed as functional, cell-based.
For data set [7], the system named is Jurkat. Description: Induction of ROS generation in human Jurkat cells assessed as increase in intracellular ROS level measured after 4 hrs in presence of vorinostat. It counts as functional, cell-based.

Consider `O=C(OC12CC3CC(CC(C3)C1)C2)c1ccc(NCc2cc(O)ccc2O)cc1`, for which the IC50 in the data set on Caco-2 came to 8 µM; in data set [2], 4.6 µM; in the data set on Jurkat [5] it was 3.1 µM; in the data set on A549, 20.1 µM. For the same molecule, the outcome in the data set with Jurkat [1] was Active. In data set [3], this molecule had a half-life of 12 h. For the same molecule, in the data set with Jurkat [4], the outcome was inactive.

As for `C[C@@]1(CCC(=O)Nc2c(O)ccc(C(=O)O)c2O)C(=O)C=CC23CC4CC(CC(C4)C21)C3` (stereo not given in full), the MIC in the data set on Staphylococcus aureus was 1.3 mg/L (≈ 2.96 µM).

In the case of `CC12CC34CC[C@H](OC(=O)c5ccc(NCc6cc(O)ccc6O)cc5)[C@@](C)(CCCOC(=O)c5ccc(NCc6cc(O)ccc6O)cc5)C3C(CC1C4)O2` (stereo not given in full), the 50% inhibitory concentration (IC50) in the data set with Caco-2 was found to be 7 µM; in data set [2] it was 7.7 µM; with Jurkat [5], 5 µM; with A549 it was 9.6 µM. In addition, the result with Jurkat [1], with Jurkat [6], with Jurkat [7] and in the data set with Jurkat [4] was Active. In [3], the half-life was 12 h.

Consider `O=C(NNC(=O)C12CC3CC(CC(C3)C1)C2)c1ccc(NCc2cc(O)ccc2O)cc1`, for which the IC50 in the data set with Caco-2 was above 100 µM; in data set [2], above 100 µM; with Jurkat [5], 16 µM; with A549 it was above 100 µM.

In the case of `C[C@]12C[C@@]34C=CC(=O)[C@@](C)(CCC(=O)Nc5c(O)ccc(C(=O)O)c5O)[C@@H]3[C@H](C[C@@H]1C4)O2`, the MIC in the data set with Staphylococcus aureus is 0.2 mg/L (≈ 0.453 µM).

For `CC12CC34C=CC(=O)[C@@](C)(CCC(=O)NNC(=O)c5ccc(NCc6cc(O)ccc6O)cc5)C3C(CC1C4)O2` (stereo not given in full), the IC50 with Caco-2 is 65.2 µM; in [2], above 100 µM; with Jurkat [5], above 100 µM; in the data set on A549, above 100 µM.

In the case of `CC12CC34CC[C@H](O)[C@@](C)(CCCO)C3C(CC1C4)O2` (stereo not given in full), the 50% inhibitory concentration (IC50) is 37.5 µM in the data set with Caco-2, 2.7 µM in [2], 7.3 µM with Jurkat [5] and 35.9 µM in the data set with A549. Also, the half-life in data set [3] is 5 h.

Turning to `COC(=O)c1ccc(NCc2cc(O)ccc2O)cc1`, the half-maximal inhibitory concentration (IC50) in the data set on Caco-2 amounted to 15.1 µM; in data set [2], 15.6 µM; in the data set with Jurkat [5], 13.1 µM; with A549, 23.2 µM. Further, the half-life in data set [3] was 3 h.

`O=C(O)c1ccc(NCc2cc(O)ccc2O)cc1`: the half-maximal inhibitory concentration (IC50) in the data set with Caco-2 is 49.8 µM; in data set [2], above 100 µM; with Jurkat [5], 20.4 µM; in the data set on A549 it was above 100 µM.
